Measured values published in patent publication US20040009921A1, “Methods and compositions for the treatment of cancer” (Allergan, Inc., priority 2002, published 2004).
Entries after “also recorded” stand apart in the source; their conditions may differ.

Experiments:
RXRα = assay: Western blotting of RXRα protein in HEK293 cells and stable lines; assay type: cell-based, human; conditions: HEK293 with β-catenin and RXRα, FIG. 4B
Protocol: (§1) (A) Western blotting analysis of HEK293 cells transfected with a combination of expression vectors for LacZ (2 μg), V5-tagged β-catenin(4 μg), and Flag-tagged RXRα (2 μg) as indicated below the gels. […] RXRα protein was measured using an HRP-conjugated mouse monoclonal antibody against the Flag tag. (B) Western blotting analysis of stable cell line RBC that overexpresses both β-catenin and RXRα. […] (C) Western blotting analysis of stable cell line CAT that overexpresses only β-catenin. […] Endogenous and overexpressed β-catenin were detected using a rabbit polyclonal antibody as indicated by “Total” whereas overexpressed β-catenin was analyzed using a mouse monoclonal antibody against the V5 tag. Endogenous and overexpressed RXRα were detected by a rabbit polyclonal antibody against RXRα, whereas overexpressed RXRα was determined by an HRP-conjugated mouse monoclonal antibody against the Flag tag. (D) Western blotting analysis of HEK293 cells transfected with a fixed amount of β-catenin (4 μg) plus an increasing amount of RXRα as indicated at the top. […] (E) Western blotting analysis of HEK293, CV-1, and Hela cells transfected with 2 μg of RXRα and 4 μg of wild type or mutant β-catenin. α. […] (F) Northern blotting analysis of RBC cells using β-catenin as a probe.
(§2) FIG. 4 Receptor and ligand specificity in degradation of β-catenin by retinoid receptors. HEK293 cells transfected with expression vectors for β-catenin (4 μg) and RXRs (2 μg) or RARs (2 μg) and treated with ligands at concentrations indicated at the top of each gel. Protein levels were detected by Western blotting as shown in this figure. β-catenin and RARs were detected by HRP-conjugated antibodies against their V5 tag. RXRs were detected by HRP-conjugated antibodies against their Flag tag. […] In this experiment, the amount of expression vectors for RXRα and RARs used in transfection was 1 μg.
(§3) HEK293 cells were seeded at a density of […] per dish were seeded into 100-mm dishes and cultured overnight in DMEM containing 10% FBS. Cells were transfected with 1-4 μg of various cDNA or parental expression vectors (8 μg of DNA in total) using Lipofectamine®. Five hours after transfection, cells were fed with fresh culture media DMEM containing 10% charcoal-treated FBS with vehicle DMSO or retinoids prepared in DMSO. After a given time of treatment, cells were harvested and lysed in a buffer containing 1% Nonidet® P-40, 30 mM Tris-HCl (pH7.4), 0.5 mM EDTA (pH 8.0), 150 mM NaCl, 10% glycerol, 1 mM sodium orthovanadate, 40 mM NaF, 0.5 mM phenylmethylsulfonyl fluoride (PMSF) and a cocktail of protease inhibitors (Merck).
(§4) Total cell lysates were homogenized by passing through a QIAshredder® (Qiagen) and cleared from insoluble materials by centriftigation at 12,000 g. Protein concentration was determined using a Bradford total protein assay kit (Bio-Rad). Total cell lysates were electrophoresed using a 4-12% SDS-PAGE gradient gel and transferred to either nitrocellulose or PVDF filter membranes. The membranes were blocked with 10% non-fat milk reconstituted from dairy milk powder in phosphate-buffered saline (PBS) containing 0.1% Tween®-20 (PBST). The membranes were incubated with primary antibodies at room temperature for 2 hours or at 4° C. for overnight. After the removal of unbound antibodies, membranes were incubated with horseradish peroxidase-conjugated secondary antibodies for one hour at room temperature and washed five times with PBST.

β-catenin = assay: Western blotting of β-catenin protein in HEK293 cells and stable lines RBC, CAT, RmBC; assay type: cell-based, human; conditions: for β-catenin stability / degradation, ligand applied alone: HEK293 with β-catenin and RXRα, FIG. 4B
Protocol: as §1, §2, §3, §4

hepatocarcinoma = conditions: experimental and clinical studies; cited from earlier work

Row | Compound | RXRα stability, ligand applied alone (RXRα) | β-catenin protein (β-catenin; HEK293 overexpressing RARα) | β-catenin stability / degradation, ligand applied alone (β-catenin) | antagonism of the effect of AGN 4204 on degradation of RARs and β-catenin (β-catenin; HEK293 co-expressing RXRα and RARs, with AGN 4204) | β-catenin stability / degradation, ligand applied alone (β-catenin; listed as AGN194310) | development of hepatocarcinoma (hepatocarcinoma)
1 | C/C(=C\c1ccc(C(=O)O)cc1)c1ccc2c(c1)C(C)(C)CCC2(C)C [TTNPB, reference compound] | no effect | a slight decrease | have no effects; also recorded: no effect |  |  | 
2 | CCc1ccc(C2=CC(C)(C)Sc3ccc(C#Cc4ccc(C(=O)O)cc4)cc32)cc1 [compound 194310, reference compound] | no effect |  | no effect | not antagonized | have no effects | 
3 | CC1=C(/C=C/C(C)=C\C=C\C(C)=C\C(=O)O)C(C)(C)CCC1 [9-cis retinoic acid] |  |  |  |  |  | suppress the development of hepatocarcinoma
